Consider ten molecules from US20230382863A1, “MEK INHIBITORS AND USES THEREOF” (Ikena Oncology, Inc., priority 2022, published 2023).

Some results are limits rather than exact numbers.

Series [1] has as its system cancer cell lines. Put plainly: In vitro MEK inhibitor drug combinations (Cell Titer Glo, Loewe synergy). Type of series: cell-based. Conditions: combination with I-2, 5 days. The protocol: Cell viability was determined by Cell Titer Glo assay. […] A normalized Loewe sum of synergy score of >10 was considered synergistic, <10, but >−10 additive, and <−10 antagonistic.

The nature of series [2]: Cassette pharmacokinetics studies in mice. The class given is in vivo. The conditions noted are these: male, Balb/c, plasma, Mouse. In a few lines: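 Male Balb/c mice (3 per route) received cassette doses in 5% DMSO/95% PEG400 at 2 mg/kg IV (1 mg/kg where IV*) or 5 mg/kg PO. Plasma sampled to 24 h, acetonitrile-precipitated with internal standard, quantified by HPLC/MS/MS against 0.5-1,000 ng/mL standards.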

Series [3] has as its target uMEK/BRAF (Homo sapiens (Human), UniProt Q02750). Put plainly: MEK-RAF Binding Assay (uMEK/BRAF HTRF). Background: In TR-FRET formats the signal depends on donor and acceptor labels being close together.
Series [4] has as its system Phosphorylation of ERK1/2 in AsPC1 cells. The experiment in a line: 4 hour pERK1/2 HTRF Assay. Type of series: cell-based. The conditions noted are these: Homo sapiens, ASPC1, read-out: pERK AsPC-1 HTRF (4 hour): Average IC50 (nM); AsPC-1, 4 hour.
Series [5] is described as follows: Pharmacokinetics in rat. Type of series: in vivo. The conditions noted are these: plasma, IV; for Vd: read-out: Vdss.
Series [6] addresses MEK1-CRAF complex (Homo sapiens (Human), UniProt Q02750). Put plainly: Stabilization of MEK1-CRAF complex assay (AlphaLISA). Type of series: binding. The protocol:
MEK1 was diluted to 4 nM, and nickel chelate donor beads and glutathione acceptor beads were diluted to 80 μg/mL. CRAF was diluted to a top concentration of 160 nM, which was subsequently diluted to 80, 40, 20, 10, 5, 2.5, 1.25, and 0.625 nM through 1:2 serial dilution.
Exemplary MEK inhibitor compounds (0, 0.01, 0.1, or 1 μM) were added to a 384-AlphaPlate (PerkinElmer, 6008350) by a digital liquid dispenser (Tecan D300e) based on a total volume of 20 μL reaction mixture.
5 μL 4×MEK1 stock solution was added to wells A1-P20 by multichannel pipettes. The plate was sealed with clear olefin sealing tape (Thermo Scientific, 232701), centrifuged at 1000 rpm for 1 minute, and incubated at room temperature for 30 minutes.
5 μL 4×CRAF stock solution at different concentrations or 5 μL or 10 μL AlphaLISA buffer was added by multichannel pipettes. The plate was sealed, centrifuged at 1000 rpm for 1 minute, and incubated at room temperature for 60 minutes.
5 μL 4×glutathione acceptor beads were first added to all wells by multichannel pipettes. The ambient light was subsequently adjusted to <100 lux (light meter) before adding 5 μL 4×nickel chelate donor beads to the same wells. From this step on, the plate was covered with a black plate cover, centrifuged at 1000 rpm for 1 minute, and incubated at room temperature for 60 minutes.
Data were collected on a PHERAStar FSX (BMG LABTECH) using the AlphaLISA module (excitation: 680 nm, emission: 615 nm), with a gain of 3600. The excitation time was 0.30 seconds, and data collection started after a 0.04-second delay for a total integration time of 0.60 seconds.
The individual AlphaLISA counts of wells with exemplary MEK inhibitor compound were divided by the average AlphaLISA counts of wells without compound to obtain AlphaLISA signal/background ratio (S/B). The dissociation constant (KD) of MEK1-CRAF was calculated using nonlinear regression curve fit in GraphPad PRISM® 9.0 software.

The subject of series [7] is pERK HCT-116 (G13D). Put plainly: pERK HCT-116 (G13D) ICW (4 hour). The class given is cell-based. Conditions: Homo sapiens, read-out: pERK HCT-116 (G13D) ICW (4 hour): Average IC50 (nM).
Series [8] relates to Phosphorylation of MEK1/2 in AsPC1 cells. Put plainly: 4 hour pMEK1/2 MSD Assay. The class given is cell-based. The conditions noted are these: Homo sapiens; AsPC1, 4 hours; read-out: pMEK IC50. The protocol:
AsPC1 cells were seeded at 10,000 cells/well overnight in 96-well plates, then treated with a 12-point dose response of compounds (Starting dose of 1000 nM and 3-fold dilution) for 4 hours. AsPC1 cells are a K-Ras mutant (G12D) pancreatic cancer cell line. Phosphorylation of MEK1/2 on residues Ser217 and Ser221 were detected using a MesoScale Discovery (MSD) assay (MSD Cat #K15129D-2). MEK1/2 phosphorylation levels were normalized to total MEK1/2 protein detected in each well on the same MSD plate. IC50 values were determined by fitting a variable slope, four parameters curve to the compound concentration to normalized Phospho-MEK1/2 relationship.

Series [9] concerns OCI-AML-3 xenograft (NRAS Q61L). The experiment in a line: In vivo efficacy, OCI-AML-3 xenograft model. Details: species or system mouse. The conditions noted are these: OCI-AML-3 model, 100 mg/kg QD, Day 15. The protocol: (§1) The antitumor activity of exemplary MEK inhibitor compounds is evaluated in vivo using human cell line derived xenografts (CDX) grown in immunodeficient mice. For these studies, AsPC1 (pancreatic cell line with KRAS G12D mutation), NCI-H2122 (lung cell line with KRAS G12C mutation), and 5637 (bladder cell line with CRAF amplification) models are used. In addition, HCT-116 (colorectal cell line with KRAS G13D mutation), SKM-1 (AML cell line with KRAS K117N mutation), and OCI-AML-3 (AML cell line with NRAS Q61L mutation) models are used. The tumor cell lines (AsPC-1, NCI-H2122, 5637, and HCT-116 cells) are maintained in vitro as monolayer culture in medium at 37° C. in an atmosphere of 5% CO2 in air. The tumor cell lines (SKM-1 and OCI-AML-3 cells) are maintained in vitro as a suspension in medium at 37° C. in an atmosphere of 5% CO2 in air. The tumor cells are routinely sub-cultured before confluence by trypsin-EDTA treatment, not to exceed 4-5 passages. The cells growing in an exponential growth phase are harvested for tumor inoculation. AsPC1, NCI-H2122, and OCI-AML-3 tumors are implanted into Balb/c nude mice. HCT-116 tumors are implanted into Nu/Nu mice. 5637 and SKM-1 tumors are implanted into NOG mice. Each mouse is inoculated subcutaneously on the right flank with tumor cells in a 1:1 mixture with matrigel. Tumors are allowed to grow to approximately 150-200 mm^3. At this time, mice are assigned to groups such that the mean tumor volume is the same for each treatment group. The MEK inhibitor compound treatments are administrated to the tumor-bearing mice via oral gavage. Throughout the study, mouse body weight and tumor volume are recorded. The measurement of tumor size is conducted twice weekly with a caliper and recorded. The tumor volume (mm^3) is estimated using the formula: TV=a×b^2/2, where “a” and “b” are long and short diameters of a tumor, respectively.

The subject of series [10] is SKM-1 xenograft (KRAS K117N). The experiment in a line: In vivo efficacy, SKM-1 xenograft model. Details: species or system mouse. Conditions: SKM-1 model, 100 mg/kg QD, Day 22. The protocol:
as §1

Where [11] appears, read: AsPC-1, HPAF, MiaPACA2, NCI-H1373, NCI-H2122, PANC03276.

Chain of uMEK/BRAF (Q02750 whole entry): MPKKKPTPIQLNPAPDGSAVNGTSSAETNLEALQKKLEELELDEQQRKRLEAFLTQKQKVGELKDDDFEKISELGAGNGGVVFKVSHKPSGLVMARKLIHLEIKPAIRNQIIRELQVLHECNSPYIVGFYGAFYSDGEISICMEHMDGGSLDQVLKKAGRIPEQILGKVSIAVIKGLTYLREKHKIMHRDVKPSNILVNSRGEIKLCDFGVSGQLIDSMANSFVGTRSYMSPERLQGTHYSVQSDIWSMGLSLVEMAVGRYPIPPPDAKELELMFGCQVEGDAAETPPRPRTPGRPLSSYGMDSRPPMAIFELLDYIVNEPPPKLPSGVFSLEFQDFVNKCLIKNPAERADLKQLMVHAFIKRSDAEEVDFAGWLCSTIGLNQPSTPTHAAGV
Chain of MEK1-CRAF complex (Q02750 whole entry, looked up): as the sequence (Q02750 whole entry) above
Chain of MEK1-CRAF complex (P04049 whole entry partner, looked up): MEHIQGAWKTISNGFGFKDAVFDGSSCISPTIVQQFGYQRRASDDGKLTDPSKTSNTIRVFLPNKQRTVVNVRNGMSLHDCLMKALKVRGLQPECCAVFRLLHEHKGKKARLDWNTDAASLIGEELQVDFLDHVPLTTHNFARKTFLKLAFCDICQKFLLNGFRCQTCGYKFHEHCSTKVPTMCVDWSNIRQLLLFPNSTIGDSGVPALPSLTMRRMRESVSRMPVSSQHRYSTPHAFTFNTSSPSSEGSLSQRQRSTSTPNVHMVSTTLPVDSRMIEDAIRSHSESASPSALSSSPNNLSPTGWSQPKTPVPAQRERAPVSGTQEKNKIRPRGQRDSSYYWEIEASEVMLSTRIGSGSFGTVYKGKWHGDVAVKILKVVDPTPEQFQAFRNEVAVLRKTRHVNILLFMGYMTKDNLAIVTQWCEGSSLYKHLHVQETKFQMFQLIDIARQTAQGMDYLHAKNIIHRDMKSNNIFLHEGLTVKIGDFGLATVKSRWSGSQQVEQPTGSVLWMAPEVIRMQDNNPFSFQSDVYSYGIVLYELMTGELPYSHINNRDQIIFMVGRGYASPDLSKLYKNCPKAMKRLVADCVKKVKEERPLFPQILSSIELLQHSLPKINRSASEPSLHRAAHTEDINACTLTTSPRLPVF

In the case of `Cc1nc(N2CCC3(CC2)CO[C@@H](C)[C@H]3N)c(CO)nc1-c1cccc(Cl)c1Cl` [RMC-4550], in [1] (setting [11]), the “Loewe Synergy Score > 10” value is recorded as 3/6 cell lines.
Regarding `Cc1c(Oc2cccc(NS(=O)(=O)NCC(F)(F)F)c2Cl)c(C(=O)NC2CC2)c(Nc2ccc(I)cc2F)n(C)c1=O` [Compound I-46], in series [2] (PO, 5 mg/kg), the AUC(0-inf) (as a rule, the area under the concentration-time curve extrapolated to infinity) was found to be 3800 ng·h/mL; the AUC(0-t) (in general, exposure summed from dosing to a finite time, without extrapolation to infinity) came to 3770 ng·h/mL; the peak level (Cmax) was 1430 ng/mL; the Tmax (usually the time from dosing to the highest level) was 36 min. The half-life (in general, how long it takes for the measured level to halve) in [2] (PO, 5 mg/kg) is 168 min. Moreover, the IC50 (as a rule, the midpoint of a concentration-inhibition curve) in [3] is < 100 nM. The IC50 in [4] was < 100 nM. Further, in series [5] (1 mg/kg), the AUC(0-inf) turned out to be 1590 ng·h/mL; the exposure AUC(0-t) stood at 1550 ng·h/mL; the clearance (as a rule, the rate of elimination divided by the concentration) was 10.5 mL/min/kg; the half-life was 112 min. Moreover, the Vd in [5] (1 mg/kg) came out at 1 L/kg.
For the molecule `C[C@H](Nc1ccc2c(c1)OCCn1cc(N3C(=O)OC[C@H]3C(F)F)nc1-2)C(N)=O` [Inavolisib], the “Loewe Synergy Score > 10” value in series [1] (setting [11]) is given as 5/6 cell lines.
As to `C=CC(=O)N1CCN(c2nc(=O)n(-c3c(C)ccnc3C(C)C)c3nc(-c4c(O)cccc4F)c(F)cc23)[C@@H](C)C1` [Sotorasib], in [1] (NCI-H358, NCI-H1373, NCI-H2122, MiaPACA2, NCI-H2030), the “Loewe Synergy Score > 10” value is 4/5 cell lines.
For `Cc1ccc(NC(=O)c2ccnc(C(F)(F)F)c2)cc1-c1cc(OCCO)nc(N2CCOCC2)c1` [LXH254], the “Loewe Synergy Score > 10” value in [1] (setting [11]) is 6/6 cell lines.
For `CO[C@H]1C[C@@H]2CC[C@@H](C)[C@@](O)(O2)C(=O)C(=O)N2CCCC[C@H]2C(=O)O[C@H]([C@H](C)C[C@@H]2CC[C@@H](OCCO)[C@H](OC)C2)CC(=O)[C@H](C)/C=C(\C)[C@@H](O)[C@@H](OC)C(=O)[C@H](C)C[C@H](C)/C=C/C=C/C=C/1C` [Everolimus], in series [1] (setting [11]), the “Loewe Synergy Score > 10” value is 5/6 cell lines.
For `Cc1c(Oc2cccc(NS(=O)(=O)NC3CC3)c2Cl)c(C(=O)NC2CC2)c(Nc2ccc(I)cc2F)n(C)c1=O` [Compound I-42], in series [2] (PO, 5 mg/kg), the AUC(0-inf) was 511 ng·h/mL; the AUC(0-t) is 506 ng·h/mL; the Cmax (as a rule, the highest concentration seen after dosing) was 418 ng/mL; the Tmax was 24 min. In [2] (PO, 5 mg/kg), this molecule gave a half-life of 66.6 min. The “KD Ratio (mean), compound to DMSO” value in series [6] (compound 0.01 μM) is 0.78. The “KD Ratio (mean), compound to DMSO” value in series [6] (compound 0.1 μM) worked out at 0.57. In addition, the “KD Ratio (mean), compound to DMSO” value in [6] (compound 1 μM) is 0.57. Also, the IC50 in series [3] was < 100 nM. Besides, the IC50 in series [4] is < 100 nM. In series [5] (1 mg/kg), this molecule showed an AUC(0-inf) of 217 ng·h/mL, an AUC(0-t) of 205 ng·h/mL, a clearance of 76.8 mL/min/kg and a half-life of 125 min. For the same molecule, the Vd in series [5] (1 mg/kg) amounted to 9.9 L/kg.
Turning to `CNS(=O)(=O)Nc1cccc(Oc2c(C(=O)NC3CC3)c(Nc3ccc(I)cc3F)n(C)c(=O)c2C)c1OC` [Compound I-1], the IC50 in [7], in series [8] and in series [3] was < 100 nM throughout. The AUC(0-inf) worked out at 455 ng·h/mL in [2] (IV, 2 mg/kg); 635 ng·h/mL in [2] (PO, 5 mg/kg); 107 ng·h/mL in [5] (0.2 mg/kg). The AUC(0-t) in series [2] (IV, 2 mg/kg) is 452 ng·h/mL; in series [2] (PO, 5 mg/kg), 614 ng·h/mL; in series [5] (0.2 mg/kg), 100 ng·h/mL. The clearance in [2] (IV, 2 mg/kg) was determined as 74.9 mL/min/kg; in series [5] (0.2 mg/kg), 31.9 mL/min/kg. Besides, the half-life in series [2] (IV, 2 mg/kg) is 100 min; in [2] (PO, 5 mg/kg), 696 min; in series [5] (0.2 mg/kg) it was 144 min. The Vd in [2] (IV, 2 mg/kg, read-out: Vdss) was found to be 3.2 L/kg; in series [5] (0.2 mg/kg), 4.2 L/kg. Moreover, in series [2] (PO, 5 mg/kg), the Cmax was found to be 432 ng/mL. Moreover, the Tmax in [2] (PO, 5 mg/kg) is 24 min. Moreover, the entries for the “KD Ratio (mean), compound to DMSO” value in [6] (compound 0.01 μM), in [6] (compound 0.1 μM) and in series [6] (compound 1 μM) were 0.80, 0.55 and 0.42, respectively.
Consider `O=C1CCc2c(Oc3ccc4c(c3)[C@@H]3[C@H](O4)[C@H]3c3nc4ccc(C(F)(F)F)cc4[nH]3)ccnc2N1` [Lifirafenib], for which the “Loewe Synergy Score > 10” value in [1] (NCI-H358, NCI-H1373, NCI-H2122) was 3/3 cell lines.
Take `CC1(C)CCC(CN2CCN(c3ccc(C(=O)NS(=O)(=O)c4ccc(NCC5CCOCC5)c([N+](=O)[O-])c4)c(Oc4cnc5[nH]ccc5c4)c3)CC2)=C(c2ccc(Cl)cc2)C1` [venetoclax, reference compound]: in [9], the “percent TGI” value is 13% and the weight gain is 8.3%. Also, in series [10], the “percent TGI” value turned out to be 46.6% and the weight gain stood at 7.5%.
